Numbers after ± are expanded uncertainties.

A short description of the series: activity coefficient (dimensionless); of the first substance listed, at infinite dilution; xn = mol fraction of the nth substance listed. To be noted: Liquid, Chromatography, x1 = 0.

With `CC(C)CC(C)(C)C` [2,2,4-trimethylpentane] + CCCCCCCCn1cc[n+](COCCCOC[n+]2ccn(CCCCCCCC)c2C)c1C.N#C[N-]C#N.N#C[N-]C#N, the activity coefficient by setting is: (323.15 K) 11.4 ± 0.78; (333.15 K) 10.5 ± 0.72; (343.15 K) 9.74 ± 0.66.

On to `C#CCCCC` [1-hexyne] + CCCOC[n+]1ccn(Cc2ccccc2)c1.N#C[N-]C#N, for which the activity coefficient was determined as 4.41 ± 0.3 (323.15 K) and 4.29 ± 0.29 (333.15 K).

For the compound `CCCC(C)=O` [pentan-2-one] + CCCCCCCCn1cc[n+](COCCC)c1C.O=S(=O)([N-]S(=O)(=O)C(F)(F)F)C(F)(F)F, the activity coefficient worked out at 0.48 ± 0.04 (323.15 K), 0.48 ± 0.04 (333.15 K) and 0.48 ± 0.04 (343.15 K).

As to `CCCCCCCCCCCC` [dodecane] + CCCOC[n+]1ccn(C)c1.N#C[N-]C#N, the activity coefficient runs as follows: (323.15 K) 802 ± 55; (333.15 K) 716 ± 49; (343.15 K) 639 ± 44.

`ClC(Cl)(Cl)Cl` [tetrachloromethane] + CCCOC[n+]1ccn(C)c1.O=S(=O)([N-]S(=O)(=O)C(F)(F)F)C(F)(F)F: the activity coefficient is, setting by setting: (323.15 K) 3 ± 0.2; (333.15 K) 3.05 ± 0.21; (343.15 K) 2.85 ± 0.19.

In the case of `CO` [methanol] + CCCOC[n+]1ccn(Cc2ccccc2)c1.N#C[N-]C#N, the activity coefficient is, setting by setting: (323.15 K) 0.39 ± 0.03; (333.15 K) 0.4 ± 0.03; (343.15 K) 0.4 ± 0.03.

On to `Cc1ccccc1C` [1,2-dimethylbenzene] + CCCOC[n+]1ccn(C)c1.F[B-](F)(F)F, for which the activity coefficient stood at 9.13 ± 0.62 (323.15 K), 8.97 ± 0.61 (333.15 K) and 8.93 ± 0.61 (343.15 K).

For the compound `CCc1ccccc1` [ethylbenzene] + CCCCCCCCn1cc[n+](COCCC)c1C.N#C[N-]C#N, the activity coefficient by setting is: (323.15 K) 1.48 ± 0.1; (333.15 K) 1.5 ± 0.1; (343.15 K) 1.54 ± 0.1.

In the case of `CC(C)CC(C)(C)C` [2,2,4-trimethylpentane] + CN(C)c1cc[n+](COCCCOC[n+]2ccc(N(C)C)cc2)cc1.O=S(=O)([N-]S(=O)(=O)C(F)(F)F)C(F)(F)F.O=S(=O)([N-]S(=O)(=O)C(F)(F)F)C(F)(F)F, the activity coefficient (323.15 K) is 31.7 ± 2.2, the activity coefficient (333.15 K) was 25.2 ± 1.7 and the activity coefficient (343.15 K) is 25.4 ± 1.7.

In the case of `CC#N` [acetonitrile] + CCCOC[n+]1ccn(Cc2ccccc2)c1.F[B-](F)(F)F, the activity coefficient by setting is: (323.15 K) 0.63 ± 0.04; (333.15 K) 0.63 ± 0.04; (343.15 K) 0.63 ± 0.04.

Consider `CCCCCCCCCCC` [undecane] + CCCOC[n+]1ccn(C)c1.O=S(=O)([N-]S(=O)(=O)C(F)(F)F)C(F)(F)F, for which the activity coefficient reads like this: (323.15 K) 89.7 ± 6.2; (333.15 K) 85.9 ± 5.9; (343.15 K) 75.3 ± 5.2.

With `CCCCCC` [hexane] + CCCOC[n+]1ccn(C)c1.O=S(=O)([N-]S(=O)(=O)C(F)(F)F)C(F)(F)F, the activity coefficient (323.15 K) is 15.9 ± 1.1 and the activity coefficient (333.15 K) was 13.3 ± 0.91.

Take `CC1CCCCC1` [methylcyclohexane] + CCCOC[n+]1ccn(Cc2ccccc2)c1.O=S(=O)([N-]S(=O)(=O)C(F)(F)F)C(F)(F)F: the activity coefficient runs as follows: (323.15 K) 6.47 ± 0.44; (333.15 K) 6.14 ± 0.42; (343.15 K) 5.7 ± 0.39.

For `CC(C)CO` [2-methyl-1-propanol] + CCCOC[n+]1ccn(Cc2ccccc2)c1.N#C[N-]C#N, the activity coefficient reads like this: (323.15 K) 0.9 ± 0.06; (333.15 K) 0.86 ± 0.06.

For the compound `c1ccsc1` [thiophene] + N#C[N-]C#N.N#C[N-]C#N.c1ccc(Cn2cc[n+](COCCCOC[n+]3ccn(Cc4ccccc4)c3)c2)cc1, the activity coefficient reads like this: (323.15 K) 1.7 ± 0.11; (333.15 K) 1.64 ± 0.11; (343.15 K) 1.67 ± 0.11.

For `CC1CCCCC1` [methylcyclohexane] + Cn1cc[n+](COCCCOC[n+]2ccn(C)c2)c1.O=S(=O)([N-]S(=O)(=O)C(F)(F)F)C(F)(F)F.O=S(=O)([N-]S(=O)(=O)C(F)(F)F)C(F)(F)F, the activity coefficient amounted to 21 ± 1.4 (323.15 K) and 18.3 ± 1.2 (333.15 K).

For the compound `c1ccncc1` [pyridine] + CCCOC[n+]1ccn(Cc2ccccc2)c1.F[B-](F)(F)F, the activity coefficient runs as follows: (323.15 K) 0.6 ± 0.04; (333.15 K) 0.61 ± 0.04; (343.15 K) 0.65 ± 0.04.

`CCCO` [propan-1-ol] + CCCOC[n+]1ccn(Cc2ccccc2)c1.F[B-](F)(F)F: the activity coefficient is, setting by setting: (323.15 K) 2.15 ± 0.15; (333.15 K) 1.92 ± 0.13; (343.15 K) 1.78 ± 0.12.

As for `CCc1ccccc1` [ethylbenzene] + CCCCCCCCn1cc[n+](COCCCOC[n+]2ccn(CCCCCCCC)c2C)c1C.N#C[N-]C#N.N#C[N-]C#N, the activity coefficient is, setting by setting: (323.15 K) 1.32 ± 0.09; (333.15 K) 1.34 ± 0.09; (343.15 K) 1.36 ± 0.09.

Regarding `Cc1ccccc1C` [1,2-dimethylbenzene] + CCCOC[n+]1ccn(Cc2ccccc2)c1.F[B-](F)(F)F, the activity coefficient runs as follows: (323.15 K) 4.3 ± 0.29; (333.15 K) 4.17 ± 0.28; (343.15 K) 4.22 ± 0.29.

With `CO` [methanol] + CCCOC[n+]1ccc(N(C)C)cc1.O=S(=O)([N-]S(=O)(=O)C(F)(F)F)C(F)(F)F, the activity coefficient by setting is: (323.15 K) 1.28 ± 0.08; (333.15 K) 1.23 ± 0.08; (343.15 K) 1.16 ± 0.07.

Consider `C1CCCCCC1` [cycloheptane] + CCCCCCCCn1cc[n+](COCCCOC[n+]2ccn(CCCCCCCC)c2C)c1C.O=S(=O)([N-]S(=O)(=O)C(F)(F)F)C(F)(F)F.O=S(=O)([N-]S(=O)(=O)C(F)(F)F)C(F)(F)F, for which the activity coefficient was found to be 5.84 ± 0.4 (323.15 K), 7.77 ± 0.53 (333.15 K) and 10.2 ± 0.7 (343.15 K).

`C[N+](=O)[O-]` [nitromethane] + CN(C)c1cc[n+](COCCCOC[n+]2ccc(N(C)C)cc2)cc1.O=S(=O)([N-]S(=O)(=O)C(F)(F)F)C(F)(F)F.O=S(=O)([N-]S(=O)(=O)C(F)(F)F)C(F)(F)F: the activity coefficient reads like this: (323.15 K) 0.39 ± 0.03; (333.15 K) 0.39 ± 0.03; (343.15 K) 0.38 ± 0.03.

With `C[N+](=O)[O-]` [nitromethane] + N#C[N-]C#N.N#C[N-]C#N.c1ccc(Cn2cc[n+](COCCCOC[n+]3ccn(Cc4ccccc4)c3)c2)cc1, the activity coefficient (323.15 K) was 0.86 ± 0.06, the activity coefficient (333.15 K) stood at 0.85 ± 0.05 and the activity coefficient (343.15 K) was 0.87 ± 0.06.

For `CCCCCC` [hexane] + CCCCCCCCn1cc[n+](COCCC)c1C.O=S(=O)([N-]S(=O)(=O)C(F)(F)F)C(F)(F)F, the activity coefficient runs as follows: (323.15 K) 3.82 ± 0.26; (333.15 K) 3.74 ± 0.25; (343.15 K) 3.12 ± 0.21.

For `CCC(C)CC` [3-methylpentane] + Cn1cc[n+](COCCCOC[n+]2ccn(C)c2)c1.O=S(=O)([N-]S(=O)(=O)C(F)(F)F)C(F)(F)F.O=S(=O)([N-]S(=O)(=O)C(F)(F)F)C(F)(F)F, the activity coefficient by setting is: (323.15 K) 39.2 ± 2.7; (333.15 K) 14.4 ± 1.

`CCCCCCCCCCCC` [dodecane] + CCCCCCCCn1cc[n+](COCCCOC[n+]2ccn(CCCCCCCC)c2C)c1C.N#C[N-]C#N.N#C[N-]C#N: the activity coefficient worked out at 28.7 ± 2 (323.15 K), 30.6 ± 2.1 (333.15 K) and 27.9 ± 1.9 (343.15 K).

As to `CCCCCCCCC` [nonane] + CCCOC[n+]1ccn(C)c1.N#C[N-]C#N, the activity coefficient (323.15 K) amounted to 263 ± 18, the activity coefficient (333.15 K) was 234 ± 16 and the activity coefficient (343.15 K) worked out at 197 ± 14.
